Experimental data published in PubChem BioAssay (NCI).
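Cells were grown in 96-well plates and exposed to each compound for 48 hours at five concentrations; endpoints were interpolated linearly between bracketing concentrations, or set to the highest concentration if not reached. GI50 = concentration required for 50% inhibition of growth. TGI marks complete inhibition of growth.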

Legend:
Assay in all cases: DTP human tumour cell line panel, 48 h
DU-145 prostate = system: DU-145 prostate
HL-60(TB) leukemia = system: HL-60(TB) leukemia
SNB-75 CNS = system: SNB-75 CNS
U251 CNS = system: U251 CNS
HOP-62 NSCLC = system: HOP-62 NSCLC
SR leukemia = system: SR leukemia
ACHN renal = system: ACHN renal
RXF 393 renal = system: RXF 393 renal
UACC-62 melanoma = system: UACC-62 melanoma
SK-OV-3 ovarian = system: SK-OV-3 ovarian

| Compound | GI50 (DU-145 prostate) | TGI (DU-145 prostate) | GI50 (HL-60(TB) leukemia) | TGI (HL-60(TB) leukemia) | GI50 (SNB-75 CNS) | TGI (SNB-75 CNS) | GI50 (U251 CNS) | TGI (U251 CNS) | GI50 (HOP-62 NSCLC) | TGI (HOP-62 NSCLC) | GI50 (SR leukemia) | TGI (SR leukemia) | GI50 (ACHN renal) | TGI (ACHN renal) | GI50 (RXF 393 renal) | TGI (RXF 393 renal) | GI50 (UACC-62 melanoma) | TGI (UACC-62 melanoma) | GI50 (SK-OV-3 ovarian) | TGI (SK-OV-3 ovarian) |
| --- | --- | --- | --- | --- | --- | --- | --- | --- | --- | --- | --- | --- | --- | --- | --- | --- | --- | --- | --- | --- |
| COCc1c(-c2ccc(NC(=O)Nc3cc(C(F)(F)F)ccc3F)c(F)c2)c2c(N)ncnn2c1CN1CCOCC1 | 2.09 µM | > 10 µM | 3.46 µM | > 10 µM | 0.492 µM | 3.25 µM | 2.56 µM | > 10 µM | 2.05 µM | 7.1 µM | 0.398 µM | 3.9 µM | 1.48 µM | > 10 µM | 0.236 µM | 1.43 µM | 1.34 µM | > 10 µM | 1.61 µM | 6.88 µM |
| CCn1ccc(NS(=O)(=O)c2ccc(N)cc2)nc1=O | > 100 µM | > 100 µM | > 100 µM | > 100 µM | > 100 µM | > 100 µM | > 100 µM | > 100 µM | > 100 µM | > 100 µM | > 100 µM | > 100 µM | > 100 µM | > 100 µM | > 100 µM | > 100 µM | > 100 µM | > 100 µM | > 100 µM | > 100 µM |
| COc1cc(/C=C/C(=O)c2c(C)nc3ccccc3c2C)ccc1OCCCN1CCN(C(=O)c2ccco2)CC1 | 9.78 µM | 21.4 µM | 2.72 µM | 5.63 µM | 12.8 µM | 27.6 µM | 7.95 µM | 20.6 µM | 14.7 µM | 30 µM | 2.22 µM | 7.47 µM | 10.2 µM | 25.1 µM | 2.8 µM | 10.2 µM | 8.39 µM | 21.7 µM | 16.1 µM | 52 µM |
| COc1cnc2c(c1)C(=O)c1c-2n(CCCN2CCNCC2)c(=O)c2cc([N+](=O)[O-])ccc12 | 0.278 µM | 1.23 µM | 0.113 µM | 1.11 µM | 0.429 µM | 1.97 µM | 0.167 µM | 1.16 µM | 0.065 µM | 0.572 µM | 0.0424 µM | 1.9 µM | 0.117 µM | 1.22 µM | 0.401 µM | 1.94 µM | 0.176 µM | 1.57 µM | 0.239 µM | 0.771 µM |
| O=C(O)Cc1cccc2c(=O)c3cccc([N+](=O)[O-])c3oc12 |  | > 100 µM |  | > 100 µM |  | > 100 µM |  | > 100 µM |  | > 100 µM |  | > 100 µM |  | > 100 µM |  | > 100 µM |  | > 100 µM |  | > 100 µM |
| COc1cc2c(cc1C)NC(=O)/C2=C\c1c[nH]c2ccccc12 | 15.3 µM | 41.1 µM | 15.9 µM | 45.5 µM | 4.12 µM | 22.9 µM | 13.6 µM | 37.9 µM | 17.9 µM | 56.8 µM | 8.91 µM | 42.6 µM | 11.5 µM | 27.3 µM | 7.82 µM | 47.6 µM | 13.3 µM | 28.4 µM | 17.3 µM | 37.7 µM |
| Cc1ccc(S(=O)(=O)N2CCc3ccc(O)c4c3C2Cc2ccc3c(c2-4)OCO3)cc1 (stereo not given) | 1.27 µM | 8.63 µM | 0.398 µM | 5.56 µM | 0.288 µM | 9.59 µM | 0.464 µM | 5.92 µM | 1.89 µM | 27.9 µM | 0.352 µM | 5.98 µM | 0.769 µM | > 60.8 µM | 0.853 µM | 5.96 µM | 0.577 µM | 9.41 µM | 0.731 µM | 8.09 µM |
| O=c1c(Cl)cc2nc3ccccc3sc-2c1Cl |  | 25.8 µM |  | 38.4 µM |  | 32.7 µM |  | 43.2 µM |  | 46.1 µM |  | 30 µM |  | 30.2 µM |  | 32.5 µM |  | 24.4 µM |  | 39 µM |
| COc1ccc(OC)c(/C=C/c2nc(SCc3ccccc3)n(-c3ccc(Cl)cc3)n2)c1 | 9.9 µM | > 100 µM | 3.14 µM | 9.86 µM | 3.92 µM | > 100 µM | 5.35 µM | > 100 µM | 9.57 µM | > 100 µM | 3.53 µM | > 100 µM | 23.2 µM | > 100 µM | 26.6 µM | > 100 µM | 6.15 µM | > 100 µM | 8.21 µM | > 100 µM |
